The source made the active and inactive calls. The rule behind the calls is not given here.
How the values were obtained:
A2780 [1] = test: Antiproliferative activity against human A2780 cells after 48 hrs by MTT assay; settings: A2780, 48 h
A549 = test: cells; settings: Homo sapiens, A549, 48 h
HUVEC = test: cells; settings: Homo sapiens, 48 h
Description: Antiproliferative activity against HUVEC after 48 hrs by MTT assay

[2] = Antiproliferative activity against human A2780/CDDP cells after 48 hrs by MTT assay
HeLa = test: cells; settings: Homo sapiens, 48 h
[3] = Antiproliferative activity against human T29 cells after 48 hrs by MTT assay; settings: T29, 48 h
A2780 [4] = test: Induction of nitric oxide generation in human A2780 cells at 100 uM after 150 mins by Griess assay; format: functional
A2780 [5] = test: Induction of nitric oxide generation in human A2780 cells at 100 to 1000 nM after 1 hr by DAF-FM DA staining-based assay; format: functional, cell-based

IC50 (A2780 [1])	IC50 (A549)	IC50 (HeLa)	SMILES	IC50 (HUVEC)	IC50 [2]	IC50 [3]	Activity (A2780 [4])	Activity (A2780 [5])
350 nM	280 nM	260 nM	Cc1cc(=O)oc2cc(OCCCOc3no[n+]([O-])c3S(=O)(=O)c3ccccc3)ccc12	680 nM	360 nM	–	–	–
> 2000 nM	–	–	COCCOc1no[n+]([O-])c1S(=O)(=O)c1ccccc1	–	–	> 2000 nM	–	–
36 nM	120 nM	24 nM	Cc1cc(=O)oc2cc(SCCOc3no[n+]([O-])c3S(=O)(=O)c3ccccc3)ccc12	220 nM	140 nM	–	–	–
3330 nM	5450 nM	830 nM	CCc1cc(=O)c2ccc(OCCOc3no[n+]([O-])c3S(=O)(=O)c3ccccc3)cc2o1	1030 nM	2880 nM	–	–	–
2450 nM	1440 nM	1990 nM	Cc1cc(=O)oc2cc(NCCOc3no[n+]([O-])c3S(=O)(=O)c3ccccc3)ccc12	3040 nM	5450 nM	–	–	–

Continued, compound first:

SMILES	IC50 (A2780 [1])	IC50 (A549)	IC50 (HeLa)	IC50 (HUVEC)	IC50 [2]	IC50 [3]	Activity (A2780 [4])	Activity (A2780 [5])
O=c1ccc2ccc(Oc3no[n+]([O-])c3S(=O)(=O)c3ccccc3)cc2o1	110 nM	8860 nM	4550 nM	6750 nM	3440 nM	–	–	–
Cc1cc(=O)oc2cc(Sc3cccc(Cl)n3)ccc12	1350 nM	3250 nM	1480 nM	5890 nM	1000 nM	–	inactive	–
Cc1cc(=O)oc2c(C)c(Oc3no[n+]([O-])c3S(=O)(=O)c3ccccc3)ccc12	9350 nM	11700 nM	> 20000 nM	> 20000 nM	> 20000 nM	–	–	–
O=S(=O)(c1ccccc1)c1no[n+]([O-])c1S(=O)(=O)c1ccccc1	880 nM	2350 nM	1450 nM	4330 nM	890 nM	–	–	–
O=C(COc1ccc2ccc(=O)oc2c1)OCCOc1no[n+]([O-])c1S(=O)(=O)c1ccccc1	> 20000 nM	> 20000 nM	> 20000 nM	> 20000 nM	> 20000 nM	–	–	–
CCOC(=O)N1CCN(/[N+]([O-])=N/Oc2ccc([N+](=O)[O-])cc2[N+](=O)[O-])CC1	630 nM	1260 nM	3560 nM	5390 nM	1050 nM	–	48 µM	Active

Reference: ChEMBL document CHEMBL3352047, “Hybrids of phenylsulfonylfuroxan and coumarin as potent antitumor agents” (J Med Chem, 2014)
